For 39 compounds, Ki results are on record in patent US11111220B2, “Propanamine derivatives for treating pain and pain related conditions” (ESTEVE PHARMACEUTICALS, S.A., priority 2017, dated 2021).

SMILES strings stand for the structures. A value given as a limit tells only on which side of the number the result lay.

Human α2δ-1 Subunit of Cav2.2 Calcium Channel, sequence (P54289 25-1103): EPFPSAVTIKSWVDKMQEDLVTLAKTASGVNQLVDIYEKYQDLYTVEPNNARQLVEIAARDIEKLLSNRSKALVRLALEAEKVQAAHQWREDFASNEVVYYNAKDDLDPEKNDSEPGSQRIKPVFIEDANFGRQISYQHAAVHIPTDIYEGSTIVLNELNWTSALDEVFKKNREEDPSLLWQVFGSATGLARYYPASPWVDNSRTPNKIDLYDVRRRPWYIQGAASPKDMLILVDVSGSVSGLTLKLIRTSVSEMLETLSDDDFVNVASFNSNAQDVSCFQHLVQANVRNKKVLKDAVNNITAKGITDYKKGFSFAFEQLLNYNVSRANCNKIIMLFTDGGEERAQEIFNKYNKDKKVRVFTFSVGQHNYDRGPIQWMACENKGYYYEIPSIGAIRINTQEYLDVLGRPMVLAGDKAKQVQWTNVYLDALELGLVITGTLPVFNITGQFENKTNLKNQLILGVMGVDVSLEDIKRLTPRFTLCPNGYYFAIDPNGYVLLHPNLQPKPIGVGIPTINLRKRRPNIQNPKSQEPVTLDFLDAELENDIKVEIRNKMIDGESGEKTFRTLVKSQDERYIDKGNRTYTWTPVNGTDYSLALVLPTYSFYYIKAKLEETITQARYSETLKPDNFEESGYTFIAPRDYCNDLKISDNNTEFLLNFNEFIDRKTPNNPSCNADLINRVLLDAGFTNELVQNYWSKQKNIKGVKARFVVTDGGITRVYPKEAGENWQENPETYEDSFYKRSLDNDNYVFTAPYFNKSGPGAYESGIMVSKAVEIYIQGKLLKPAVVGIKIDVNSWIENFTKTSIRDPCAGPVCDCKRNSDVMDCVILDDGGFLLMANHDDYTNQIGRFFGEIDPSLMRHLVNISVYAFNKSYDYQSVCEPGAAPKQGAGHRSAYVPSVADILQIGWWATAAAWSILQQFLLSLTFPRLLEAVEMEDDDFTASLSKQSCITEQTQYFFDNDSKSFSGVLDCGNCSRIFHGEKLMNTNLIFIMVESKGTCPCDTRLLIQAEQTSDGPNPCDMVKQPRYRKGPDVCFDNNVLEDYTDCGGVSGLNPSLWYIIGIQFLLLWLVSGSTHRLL

The target in the assay is Human α2δ-1 Subunit of Cav2.2 Calcium Channel (Homo sapiens, UniProt P54289). Briefly: Binding assay to human α2δ-1 subunit of Cav2.2 calcium channel ([3H]-Gabapentin). The conditions noted are these: Table 1; human α2δ-1 enriched membranes, 15 nM [3H]-Gabapentin; read-out: Ki(nM) alpha2delta Hum. How it is done:
Binding Assay to Human α2δ-1 Subunit of Cav2.2 Calcium Channel.
Human α2δ-1 enriched membranes (2.5 μg) were incubated with 15 nM of radiolabeled [3H]-Gabapentin in assay buffer containing Hepes-KOH 10 mM, pH 7.4.
NSB (non specific binding) was measured by adding 10 μM pregabalin. The binding of the test compound was measured in five different concentrations. After 60 min incubation at 27° C., binding reaction was terminated by filtering through Multiscreen GF/C (Millipore) presoaked in 0.5% polyethyleneimine in Vacuum Manifold Station, followed by 3 washes with ice-cold filtration buffer containing 50 mM Tris-HCl, pH 7.4.
Filter plates were dried at 60° C. for 1 hour and 30 μl of scintillation cocktail were added to each well before radioactivity reading.
Readings were performed in a Trilux 1450 Microbeta radioactive counter (Perkin Elmer).
Regarding `CCN(Cc1ccccc1)Cc1cccc(OC(CCNC)c2cccs2)c1` (stereo not drawn) [Example 1, 3-(3-((Benzyl(ethyl)amino)methyl)phenoxy)-N-methyl-3-(thiophen-2-yl)propan-1-amine], the Ki is 100 to 500 nM. Next, `CNCCC(Oc1cccc(CNC)c1)c1cccs1` (stereo not drawn) [Example 3, N-methyl-3-(3-((methylamino)methyl)phenoxy)-3-(thiophen-2-yl)propan-1-amine]: 100 to 500 nM.

As to `CNCCC(Oc1cccc(CN(C)C)c1)c1cccs1` (stereo not drawn) [Example 4, 3-(3-((Dimethylamino)methyl)phenoxy)-N-methyl-3-(thiophen-2-yl)propan-1-amine], the Ki fell in the range of 100 to 500 nM. As to `CCNCc1cccc(OC(CCNC)c2cccs2)c1` (stereo not drawn) [Example 5, 3-(3-((Ethylamino)methyl)phenoxy)-N-methyl-3-(thiophen-2-yl)propan-1-amine], the Ki was in the range of 100 to 500 nM. For the compound `CNCCC(Oc1cccc(C(=O)NCc2ccccn2)c1)c1cccs1` (stereo not drawn) [Example 7, 3-(3-(Methylamino)-1-(thiophen-2-yl)propoxy)-N-(pyridin-2-ylmethyl)benzamide], the Ki was at least 3000 nM. As to `CNCCC(Oc1cccc(C(=O)Nc2cccnc2)c1)c1cccs1` (stereo not drawn) [Example 8, 3-(3-(Methylamino)-1-(thiophen-2-yl)propoxy)-N-(pyridin-3-yl)benzamide], the Ki is 500 to 3000 nM.

`CNCCC(Oc1cccc(C(=O)Nc2cccc(-c3nnc(C)o3)c2)c1)c1cccs1` (stereo not drawn) [Example 9, N-(3-(5-methyl-1,3,4-oxadiazol-2-yl)phenyl)-3-(3-(methylamino)-1-(thiophen-2-yl)propoxy)benzamide]: the Ki lay in the range of 500 to 3000 nM. As to `CNCCC(Oc1cccc(C(=O)NCc2ccccc2)c1)c1cccs1` (stereo not drawn) [Example 10, N-benzyl-3-(3-(methylamino)-1-(thiophen-2-yl)propoxy)benzamide], the Ki was 500 to 3000 nM. Regarding `CNCCC(Oc1cccc(C(=O)Nc2ccccc2CN(C)C)c1)c1cccs1` (stereo not drawn) [Example 11, N-(2-((dimethylamino)methyl)phenyl)-3-(3-(methylamino)-1-(thiophen-2-yl)propoxy)benzamide], the Ki lay within 500 to 3000 nM. `CNCCC(Oc1cccc(C(=O)Nc2ccccc2N(C)C)c1)c1cccs1` (stereo not drawn) [Example 12, N-(2-(dimethylamino)phenyl)-3-(3-(methylamino)-1-(thiophen-2-yl)propoxy)benzamide]: the Ki fell in the range of 500 to 3000 nM. Take `CNCCC(Oc1cccc(C(=O)NC)c1)c1ccccc1` (stereo not drawn) [Example 16, N-methyl-3-(3-(methylamino)-1-phenylpropoxy)benzamide]: the Ki was at least 3000 nM. The same measure for `CCNC(=O)c1cccc(OC(CCNC)c2ccccc2)c1` (stereo not drawn) [Example 19, N-ethyl-3-(3-(methylamino)-1-phenylpropoxy)benzamide]: at least 3000 nM.

Consider `CCNc1ccc(NC(=O)c2cccc(OC(CCNC)c3ccccc3)c2)cn1` (stereo not drawn) [Example 21, N-(6-(ethylamino)pyridin-3-yl)-3-(3-(methylamino)-1-phenylpropoxy)benzamide], for which the Ki is at least 3000 nM. The same measure for `CNCCC(Oc1cccc(N(C)C(=O)c2ccccc2)c1)c1ccccc1` (stereo not drawn) [Example 23, N-methyl-N-(3-(3-(methylamino)-1-phenylpropoxy)phenyl) benzamide]: at least 3000 nM; for `CNCCC(Oc1cccc(N(C)C(C)=O)c1)c1ccccc1` (stereo not drawn) [Example 24, N-methyl-N-(3-(3-(methylamino)-1-phenylpropoxy)phenyl)acetamide]: at least 3000 nM. Take `CCCC(=O)N(C)c1cccc(OC(CCNC)c2ccccc2)c1` (stereo not drawn) [Example 25, N-methyl-N-(3-(3-(methylamino)-1-phenylpropoxy)phenyl)butyramide]: the Ki was at least 3000 nM.

In the case of `CNCCC(Oc1cccc(N(C)C(=O)c2cccnc2)c1)c1ccccc1` (stereo not drawn) [Example 26, N-methyl-N-(3-(3-(methylamino)-1-phenylpropoxy)phenyl)nicotinamide], the Ki is at least 3000 nM. As for `CCNc1ncc(C(=O)N(C)c2cccc(OC(CCNC)c3ccccc3)c2)c(N2CCCC2)n1` (stereo not drawn) [Example 29, 2-(Ethylamino)-N-methyl-N-(3-(3-(methylamino)-1-phenylpropoxy)phenyl)-4-(pyrrolidin-1-yl)pyrimidine-5-carboxamide], the Ki was at least 3000 nM. As for `CCNc1ncc(C(=O)N(C)c2cccc(OC(CCNC)c3cccs3)c2)c(N2CCCC2)n1` (stereo not drawn) [Example 30, 2-(Ethylamino)-N-methyl-N-(3-(3-(methylamino)-1-(thiophen-2-yl)propoxy)phenyl)-4-(pyrrolidin-1-yl)pyrimidine-5-carboxamide], the Ki was 500 to 3000 nM.

Turning to `CNCCC(OCc1cccc(N(C)C(=O)c2ccccc2)c1)c1ccccc1` (stereo not drawn) [Example 31, N-methyl-N-(3-((3-(methylamino)-1-phenylpropoxy)methyl)phenyl)benzamide], the Ki was at least 3000 nM. Regarding `CNCCC(OCc1cccc(N(C)C(=O)c2cccnc2)c1)c1ccccc1` (stereo not drawn) [Example 32, N-methyl-N-(3-((3-(methylamino)-1-phenylpropoxy)methyl)phenyl)nicotinamide], the Ki is at least 3000 nM. Take `CNCCC(OCc1cccc(N(C)C(=O)c2cnc(OC)nc2)c1)c1ccccc1` (stereo not drawn) [Example 33, 2-Methoxy-N-methyl-N-(3-((3-(methylamino)-1-phenylpropoxy)methyl)phenyl)pyrimidine-5-carboxamide]: the Ki was at least 3000 nM. For `CNCCC(OCc1cccc(N(C)C(=O)c2cncnc2)c1)c1ccccc1` (stereo not drawn) [Example 34, N-methyl-N-(3-((3-(methylamino)-1-phenylpropoxy)methyl)phenyl)pyrimidine-5-carboxamide], the Ki is at least 3000 nM.

For `CNCCC(OCc1cccc(N(C)C(=O)c2cnc(SC)nc2)c1)c1ccccc1` (stereo not drawn) [Example 35, N-methyl-N-(3-((3-(methylamino)-1-phenylpropoxy)methyl)phenyl)-2-(methylthio)pyrimidine-5-carboxamide], the Ki was at least 3000 nM.

For the compound `CNCCC(OCc1cccc(N(C)C(=O)c2ccccn2)c1)c1ccccc1` (stereo not drawn) [Example 36, N-methyl-N-(3-((3-(methylamino)-1-phenylpropoxy)methyl)phenyl)picolinamide], the Ki is at least 3000 nM. In the case of `CCNc1ncc(C(=O)N(C)c2cccc(COC(CCNC)c3ccccc3)c2)c(N2CCCC2)n1` (stereo not drawn) [Example 37, 2-(Ethylamino)-N-methyl-N-(3-((3-(methylamino)-1-phenylpropoxy)methyl)phenyl)-4-(pyrrolidin-1-yl)pyrimidine-5-carboxamide], the Ki was in the range of 500 to 3000 nM. Take `CNCCC(OCc1cccc(NC(=O)c2cccnc2)c1)c1ccccc1` (stereo not drawn) [Example 40, N-(3-((3-(methylamino)-1-phenylpropoxy)methyl)phenyl)nicotinamide]: the Ki was at least 3000 nM. For the compound `CNCCC(OCc1cccc(NC(=O)c2cncnc2)c1)c1ccccc1` (stereo not drawn) [Example 42, N-(3-((3-(methylamino)-1-phenylpropoxy)methyl)phenyl)pyrimidine-5-carboxamide], the Ki is at least 3000 nM.

Turning to `CNCCC(OCc1cccc(NC(=O)c2cnc(SC)nc2)c1)c1ccccc1` (stereo not drawn) [Example 44, N-(3-((3-(methylamino)-1-phenylpropoxy)methyl)phenyl)-2-(methylthio)pyrimidine-5-carboxamide], the Ki is at least 3000 nM. As for `CCNc1ncc(C(=O)Nc2cccc(COC(CCNC)c3ccccc3)c2)c(N2CCCC2)n1` (stereo not drawn) [Example 45, 2-(Ethylamino)-N-(3-((3-(methylamino)-1-phenylpropoxy)methyl)phenyl)-4-(pyrrolidin-1-yl)pyrimidine-5-carboxamide], the Ki fell in the range of 500 to 3000 nM. Take `CNCCC(OCc1cccc(NC(=O)c2ccccc2N(C)C)c1)c1cccs1` (stereo not drawn) [Example 47, 2-(Dimethylamino)-N-(3-((3-(methylamino)-1-(thiophen-2-yl)propoxy)methyl)phenyl)benzamide]: the Ki was at least 3000 nM. In the case of `CCNc1ncc(C(=O)Nc2cccc(COC(CCNC)c3cccs3)c2)c(N2CCCC2)n1` (stereo not drawn) [Example 49, 2-(Ethylamino)-N-(3-((3-(methylamino)-1-(thiophen-2-yl)propoxy)methyl)phenyl)-4-(pyrrolidin-1-yl)pyrimidine-5-carboxamide], the Ki lay within 500 to 3000 nM. Next, `CCNc1ncc(C(=O)Nc2cccc(OC(CCNC)c3cccs3)c2)c(N2CCCC2)n1` (stereo not drawn) [Example 51, 2-(Ethylamino)-N-(3-(3-(methylamino)-1-(thiophen-2-yl)propoxy)phenyl)-4-(pyrrolidin-1-yl)pyrimidine-5-carboxamide]: 500 to 3000 nM. Regarding `CNCCC(OCc1cccc(NCc2ccccc2)c1)c1ccccc1` (stereo not drawn) [Example 52, N-benzyl-3-((3-(methylamino)-1-phenylpropoxy)methyl)aniline], the Ki was at least 3000 nM.

With `CNCCC(OCc1cccc(NCc2cncnc2)c1)c1ccccc1` (stereo not drawn) [Example 53, 3-((3-(Methylamino)-1-phenylpropoxy)methyl)-N-(pyrimidin-5-ylmethyl)aniline], the Ki was at least 3000 nM. The same measure for `CN(C)CCC(OCc1cccc(NC(=O)c2ccccc2)c1)c1cccs1` (stereo not drawn) [Example 54, N-(3-((3-(dimethylamino)-1-(thiophen-2-yl)propoxy)methyl)phenyl) benzamide]: at least 3000 nM. Turning to `CN(C)CCC(OCc1cccc(NC(=O)c2ccccc2N(C)C)c1)c1cccs1` (stereo not drawn) [Example 55, 2-(Dimethylamino)-N-(3-((3-(dimethylamino)-1-(thiophen-2-yl)propoxy)methyl)phenyl)benzamide], the Ki was at least 3000 nM. Regarding `CCN(Cc1cccc(OC(CCNC)c2cccs2)c1)C(=O)c1ccccc1` (stereo not drawn) [Example 56, N-ethyl-N-(3-(3-(methylamino)-1-(thiophen-2-yl)propoxy)benzyl) benzamide], the Ki is at least 3000 nM.

As for `CNCCC(OCc1cccc(N(Cc2ccccc2)C(C)=O)c1)c1ccccc1` (stereo not drawn) [Example 57, N-benzyl-N-(3-((3-(methylamino)-1-phenylpropoxy)methyl)phenyl) acetamide], the Ki was at least 3000 nM.
